According to publication PMC4775224 (2015):
Values belong to the compound of their own block, whether it stands above or below them.

Test system: TPP riboswitch aptamer (wtAtRs1 + wtAtRs2 + wtAtRs3, splint-ligated) (RNA, riboswitch, amino-modified U (5-N-U) at 59 (U replaces G88 in paper numbering); amino-modified U (5-LC-N-U) at 123 (U25 in paper numbering)) AUCGAGAGGGACACGGGGAAACACCACCAUAUAUGCACCAGGGGUGCUUGAACCAGGAUAGCCUGCGAAAAGGCGGGCUAUCCGGGACCAGGCUGAGAAAGUCCCUUUGAACCUGAACAGGGUAAUGCCUGCGCAGGGAGUGUGCUAACAAGGUCACCAUCAUCCUGACUAGAGUCCUUGG
Experiment: optical-trap force spectroscopy with smFRET
Details: 130 mM KCl, 4 mM Mg2+, 50 mM HEPES pH 7.5, 1 mM EDTA, oxygen scavengers

- binding (2 mM thiamine (saturating), arms not docked): yes
Compound: Cc1ncc(C[n+]2csc(CCO)c2C)c(N)n1

- binding (2 mM TMP (saturating), arms not docked): yes
Compound: Cc1ncc(C[n+]2csc(CCOP(=O)(O)O)c2C)c(N)n1

- binding (5 µM, 50 µM and 2 mM TPP, weak then strong state): yes
Compound: Cc1ncc(C[n+]2csc(CCOP(=O)(O)OP(=O)(O)O)c2C)c(N)n1
